The series in a line: Solubility assessment in water (aqueous solubility). Type of series: physicochemical. The note with it: thermodynamic from solid. As for the experimental part: Solubility assessment: A preweighed amount of powder of a salt was treated with water to target a nominal concentration of 50 mg/mL. If a clear solution was obtained, then the solubility was noted as ≧50 mg/mL. If a suspension was obtained, it was sonicated for 1 min, followed by vortex mixing for 30 sec, and centrifuged for 5 min. The mother liquor was siphoned off and assayed for content against a standard of the free base by HPLC.

The structures appear in SMILES notation.

Regarding `CCN1CCN(S(=O)(=O)c2cc(C#N)ccc2Oc2cc(C)cc(C)c2)CC1` [Cmpd 3, 4-(3,5-dimethylphenoxy)-3-(4-ethylpiperazin-1-ylsulfonyl)benzonitrile], the solubility (usually how much of the substance goes into solution per volume) at 1.5 min by setting is: (Camsylate salt) 80 µg/mL; (Free base) below 10 µg/mL; (HBr salt) 30 µg/mL; (HCl salt) 330 µg/mL; (Mesylate salt) 200 µg/mL.
`N#Cc1ccc(Sc2cc(Cl)cc(Cl)c2)c(S(=O)(=O)N2CCN(C3CCCC3)CC2)c1` [Cmpd 5, 3-(4-cyclopentylpiperazin-1-ylsulfonyl)-4-(3,5-dichlorophenylthio)-benzonitrile]: the solubility at 1.5 min reads like this: (Free base) below 10 µg/mL; (HCl salt) 110 µg/mL; (Mesylate salt) 230 µg/mL; (Phosphate salt) 10000 µg/mL; (Sulfate salt) 1200 µg/mL.
Taken in the same sequence, the figures for `CN1CCN(CCNC(=O)NC2CCN(S(=O)(=O)c3cc(C#N)ccc3Oc3cc(Cl)cc(Cl)c3)CC2)CC1` [Cmpd 8, 1-(1-(5-cyano-2-(3,5-dichlorophenoxy)phenylsulfonyl)piperidin-4-yl)-3-(2-(4-methylpiperazin-1-yl)ethyl)urea] were below 10 µg/mL, 1400 µg/mL, 10900 µg/mL, 2400 µg/mL and 580 µg/mL.
For the compound `CCN1CCN(S(=O)(=O)c2cc([N+](=O)[O-])ccc2Oc2cc(Cl)cc(Cl)c2)CC1` [Cmpd 6, 1-(2-(3,5-dichlorophenoxy)-5-nitrophenylsulfonyl)-4-ethylpiperazine], the solubility at 1.5 min by setting is: (Camsylate salt) 250 µg/mL; (Free base) below 10 µg/mL; (HBr salt) 1000 µg/mL; (HCl salt) 1590 µg/mL; (Mesylate salt) 10000 µg/mL; (Phosphate salt) 1660 µg/mL. The solubility at 1.5 min (Sulfate salt) worked out at 600 µg/mL and the solubility at 1.5 min (Tosylate salt) was determined as 300 µg/mL.
For the compound `CN1CCN(S(=O)(=O)c2cc(C#N)ccc2Sc2cc(Cl)cc(Cl)c2)CC1` [Cmpd 1, 4-(3,5-dichlorophenylthio)-3-(4-methylpiperazin-1-ylsulfonyl)benzonitrile], the solubility at 1.5 min by setting is: (Free base) below 10 µg/mL; (HBr salt) 400 µg/mL; (HCl salt) 1360 µg/mL; (Mesylate salt) 7260 µg/mL; (Phosphate salt) 1700 µg/mL; (Sulfate salt) 790 µg/mL. Further, the solubility at 1.5 min (Tartrate salt) is 450 µg/mL.
As to `CC(C)N1CCN(S(=O)(=O)c2cc(C#N)ccc2Sc2cc(Cl)cc(Cl)c2)CC1` [Cmpd 4, 4-(3,5-dichlorophenylthio)-3-(4-isopropylpiperazin-1-ylsulfonyl)benzonitrile], the solubility at 1.5 min (Camsylate salt) amounted to 240 µg/mL; the solubility at 1.5 min (Free base) is below 10 µg/mL; the solubility at 1.5 min (HBr salt) came to 200 µg/mL; the solubility at 1.5 min (HCl salt) is 800 µg/mL; the solubility at 1.5 min (Mesylate salt) is 23000 µg/mL; the solubility at 1.5 min (Sulfate salt) came out at 1100 µg/mL.
Turning to `CCN1CCN(S(=O)(=O)c2cc(C#N)ccc2Oc2cc(Cl)cc(Cl)c2)CC1` [Cmpd 2, 4-(3,5-dichlorophenoxy)-3-(4-ethylpiperazin-1-ylsulfonyl)benzonitrile], the solubility at 1.5 min is, setting by setting: (Free base) below 10 µg/mL; (Mesylate salt) 270 µg/mL; (Phosphate salt) 120 µg/mL; (Sulfate salt) 230 µg/mL.
With `N#Cc1ccc(Oc2cc(Cl)cc(Cl)c2)c(S(=O)(=O)N2CCC(NC(=O)NCCN3CCOCC3)CC2)c1` [Cmpd 7, 1-(1-(5-cyano-2-(3,5-dichlorophenoxy)phenylsulfonyl)piperidin-4-yl)-3-(2-morpholinoethyl)urea], the solubility at 1.5 min was 800 µg/mL (Citrate salt); below 10 µg/mL (Free base); 3670 µg/mL (HCl salt); 3810 µg/mL (Mesylate salt); 2910 µg/mL (Phosphate salt); 2350 µg/mL (Sulfate salt).

Source of the values: US20120088769A1, “SALTS OF ARYLSULFONAMIDE CCR3 ANTAGONISTS” (Axikin Pharmaceuticals, Inc., priority 2010, published 2012).
